Several values for one entry are separate records, joined by “and”; a condition that tells them apart may be missing. Equal values may be shown once.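 How tested: cells in 96-well plates exposed to compound for 48 hours at five concentrations. GI50: concentration for 50% inhibition of growth. At the TGI there is no net growth.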
Tests used:
Test in all cases: inhibition of tumour cell growth, NCI panel, 48 h
[1] = tested on: KM12 colon
[2] = tested on: SK-OV-3 ovarian
[3] = tested on: SK-MEL-2 melanoma
[4] = tested on: HOP-62 NSCLC
[5] = tested on: HCT-116 colon
[6] = tested on: MALME-3M melanoma
[7] = tested on: SN12C renal
[8] = tested on: HCC-2998 colon
[9] = tested on: LOX IMVI melanoma
[10] = tested on: SR leukemia

SMILES | GI50 [1] [µM] | TGI [1] [µM] | GI50 [2] [µM] | TGI [2] | GI50 [3] [µM] | TGI [3] [µM] | GI50 [4] [µM] | TGI [4] [µM] | GI50 [5] [µM] | TGI [5] | GI50 [6] [µM] | TGI [6] [µM] | GI50 [7] [µM] | TGI [7] [µM] | GI50 [8] [µM] | TGI [8] [µM] | GI50 [9] [µM] | TGI [9] [µM] | TGI [10] [µM] | GI50 [10] [µM]
COc1cc(C(=O)N2CCN(C(=O)c3cc(OC)c(OC)c(OC)c3)C2=S)cc(OC)c1OC | 14.2 | 39.7 | 20.2 | 52.7 µM | 16.3 | 34.6 | 15.2 | 38.9 | 18.2 | 33.1 µM | 13.4 | 27 | 17.1 | 35.7 | 19 | 40 | 15.4 | 30.7 | – | –
O=C1CCC2(c3ccc(Cl)cc3)Nc3cc(Cl)ccc3N12 (stereo unspecified) | – | 24.4 | – | 40.1 µM | – | 23.8 | – | 29.2 | – | 19.5 µM | – | 24.5 | – | 28.6 | – | – | – | 24.5 | > 100 | –
C=CCC1(c2ccc(OC)cc2)C=CC(=O)CC1 (stereo unspecified) | – | > 100 | – | > 100 µM | – | – | – | > 100 | – | > 100 µM | – | – | – | > 100 | – | > 100 | – | > 100 | > 100 | –
CCOC(=O)N[C@H]1CCc2cc(OC)c(OC)c(OC)c2-c2ccc(SC)c(=O)cc21 | – | – | < 0.01 | 26.8 µM and > 100 µM | 0.345 | – | – | > 100 | – | 6.09 µM and > 39 µM | < 0.0122 | > 100 | < 0.01 | > 100 | – | > 69.6 | – | > 100 | > 100 | –
COc1ccc(-c2nnc3n(C)c(=O)c4ccccc4n23)cc1N | 0.0499 | > 100 | 3.25 | > 100 µM | – | – | 0.0482 | > 100 | 0.0571 | > 100 µM | – | – | 6.83 | > 100 | 5.29 | > 100 | 3.01 | > 100 | > 100 | 0.0346
C=CCCCCC1CCC2CCC(CCCCC=C)N12 (stereo unspecified) | – | 29.6 | – | – | – | 22.9 | – | 33 | – | 30.2 µM | – | 31.8 | – | 29.9 | – | 30 | – | – | 33.4 | –
COc1ccc(C(=O)Nc2ccc(O)c(=O)cc2)cc1 | – | > 100 | – | – | – | > 100 | – | > 100 | – | > 100 µM | – | > 100 | – | > 100 | – | > 100 | – | > 100 | 31.4 | –
Cc1ccc2nc(/C(=C/c3ccc(/C=C(\NC(=O)c4ccccc4)c4nc5ccc(C)cc5[nH]4)c(C)c3)NC(=O)c3ccccc3)[nH]c2c1 | – | 37.5 | – | > 100 µM | – | 33.3 | – | > 100 | – | 39.8 µM | – | 59.9 | – | 30.1 | – | – | – | – | > 100 | –
O=C(Nc1cccc(C(F)(F)F)c1)c1ccc(NC2=C(Cl)C(=O)N(Cc3ccc(Cl)cc3Cl)C2=O)cc1 | 14.6 | 31.4 | 60.4 | > 100 µM | 10.9 | 25.6 | 18 | 32.2 | 5.99 | 18.6 µM | – | – | 17.4 | 32.8 | – | – | 1.63 | 3.44 | 3.93 | 1.83
CCN(CC)CCNc1nc(N)c(C#N)c(C#N)c1C#N | – | > 10 | – | > 10 µM | – | – | – | > 10 | – | > 10 µM | – | > 10 | – | > 10 | – | > 10 | – | > 10 | – | –
COC(=O)/C(C#N)=C1\N=NNN1c1ccc(OC)cc1 | – | > 100 | – | > 100 µM | – | – | – | – | – | > 100 µM | – | > 100 | – | > 100 | – | > 100 | – | > 100 | – | –
CN(C)C(=S)/N=c1\sn(C)/c(=N\C(=S)N(C)C)n1C | – | > 100 | – | > 100 µM | – | – | – | > 100 | – | > 100 µM | – | 75.7 | – | > 100 | – | > 100 | – | > 100 | > 100 | –
COC(=O)/C(=C/c1ccc(OC)cc1)C(C(=O)O)=C1CCCC1 | – | > 100 | – | > 100 µM | – | > 100 | – | > 100 | – | > 100 µM | – | – | – | > 100 | – | > 100 | – | > 100 | > 100 | –
NC(N)=NCCCC(=O)O | – | > 100 | – | > 100 µM | – | > 100 | – | > 100 | – | > 100 µM | – | > 100 | – | > 100 | – | – | – | > 100 | > 100 | –
COC(=O)[C@]12CC[C@@H](C)[C@H](C)[C@@H]1C1=CC[C@@H]3[C@@]4(C)C[C@@H](O)[C@H](O)[C@@](C)(CO)C4=CC[C@@]3(C)[C@]1(C)CC2 | 14.8 | 32.5 | 19.7 | 34.4 µM | 17.8 | 33.1 | 21.3 | 39.2 | 19 | 37.2 µM | 17.5 | 31.3 | – | – | 17.3 | 34.8 | 16.8 | 34.9 | 37.4 | 17.1
CCCCCCCCCCCCCCCC(=O)OCCOCCOCCOCc1ccccc1 | – | > 100 | – | – | – | > 100 | – | > 100 | – | > 100 µM | – | > 100 | – | > 100 | – | – | – | > 100 | – | –
COC1C(OC(=S)Nc2ccccc2)c2ccccc2N1C(C)=O (stereo unspecified) | – | > 100 | – | – | – | > 100 | – | > 100 | – | > 100 µM | – | – | – | > 100 | – | > 100 | – | – | > 100 | –
NC1CCN(Cc2ccccc2)CC1 | > 100 | > 100 | > 100 | > 100 µM | > 100 | > 100 | – | – | > 100 | > 100 µM | – | – | > 100 | > 100 | > 100 | > 100 | > 100 | > 100 | > 100 | > 100
CC1=Cc2cccc(C)c2C(=O)C1=O | – | 19.7 | – | 36.8 µM | – | 31.9 | – | 30.2 | – | 6.88 µM | – | 3.26 | – | 37.2 | – | 27.8 | – | 21.5 | – | –
CCOC(=O)c1nc2c(OC)nn(O)cc-2c1[N+](=O)[O-] | – | 28.2 | – | > 100 µM | – | 34.9 | – | > 100 | – | 38 µM | – | 32.4 | – | 34.7 | – | – | – | 30 | – | –
